# Assay results reported in PMC11796312, “Multifunctional, Fluorene‐Based Modulator of Cholinergic and GABAergic Neurotransmission as a Novel Drug Candidate for Palliative Treatment of Alzheimer's Disease” (Angewandte Chemie (International Ed. in English), 2024).
# Entries after “also recorded” stand apart in the source; their conditions may differ. Like-named read-outs stand apart in the source and are kept apart here.
# Assays:
# [1] = Cell viability, PrestoBlue (neurotoxicity); type: cell-based; details: mouse, 24 h, read-out: viability, neurotoxicity X [%]
# Method: (§1) Mouse Hippocampal Neuronal (HT-22) were cultured in Dulbecco's modified Eagle's Medium - high glucose (DMEM, Glutamx Thermo Fisher) supplemented with 10% inactivated fetal bovine serum heat (Thermo Fisher), 100 IU/ml penicillin (Sigma Aldrich) and 100 µg/ml streptomycin (Merck). Cells were cultured in flasks (area 75 cm2, Nunc), and incubated at 37°C, 5% CO2. For the measurement of cell viability cells were placed in a 96-well culture plate (2x10^4 cells per well, Falcon). Before the tests, cells were grown for 24 hours in the incubator (37°C, 5% CO2).
# (§2) Preparation of stock solutions of tested compounds
# (§3) Stock solutions were prepared in the concentration of 10 mM for test and reference compounds. Minimum 1 mg of each tested compound was weighed and dissolved in appropriate volume of dimethyl sulfoxide. Serial dilutions were prepared in DMSO and then the diluted compounds were transferred to PBS. Before assays eventual precipitation or opalescence was checked. All experiments were performed in duplicates, in three independent experiments. Cell viability was measured after 24 hours of incubation with tested cell line.
# (§4) Cell viability was evaluated using the Presto Blue reagent (Thermo Fisher), according to the manufacturer procedures. Following 24 hours of incubation with the tested molecule, PrestoBlue reagent was added to a microplate well in an amount equal to one tenth of the remaining medium volume. The resulting mixture was incubated for 15 minutes at 37°C, and the fluorescence intensity (EX 530; EM 580 nm) was measured in the plate reader POLARstar Omega, (BMG Labtech). The results (viability values) are provided as a percentage of live cells with respect to DMSO (control sample).
# (§5) Viability values were calculated as a percentage of live cells with respect to the control sample (DMSO). The negative control was medium without cells. IC 50 was determined by […]
# (§6) nonlinear regression analysis using GraphPad Prism 9.0 software. All values are expressed as […]
# (§7) Table S10. The viability of cells. neurotoxicity immuntoxicity
# (§8) The results (viability values) are provided as a percentage of live cells with respect to DMSO (control sample)
# (§9) Table S11. The viability of cells.
# [2] = tested on: Mouse Hippocampal Neuronal (HT-22); test: Cell viability, PrestoBlue (neurotoxicity); type: cell-based; details: Mus musculus, HT-22, 24 h
# Method: as §1, §2, §3, §4, §5, §6, §7, §8, §9
# [3] = tested on: mice; test: Four-plate test (FPT); type: in vivo; details: 0.1, 1 and 10 mg/kg i.p., vs control
# Method: (§10) Animals and housing conditions
# (§11) In all pharmacodynamic in vivo experiments, except for the Barnes maze (BM) task, adult male Albino Swiss (CD-1) mice weighing between 18 and 22 g and purchased from the Animal Breeding Farm of the Faculty of Pharmacy, Jagiellonian University Medical College were used. In BM task, C57BL/6J mice of the same weight (Animalab, Poland) were used.
# (§12) Animals were housed in cages (10 mice per cage) at a constant temperature of 22 ± 2 °C, humidity of 55 ± 10%, and a light/dark (12:12) cycle (lights on at 7 AM). Before the experiments, the animals had unlimited access to food and water. […]
# (§13) Briefly, mice were individually placed in a glass cylinder (25 cm high, 10 cm in diameter) containing 11 cm of water maintained at 23–25 °C and were left therein for 6 min. […] The total duration of immobility was measured during the final 4 min of a 6-min test session. […]
# (§14) The four-plate apparatus (FPT; Bioseb, France) consists of a cage (25 × 18 × 16 cm) that is floored with four rectangular metal plates (11 × 8 cm). […] The number of punished crossings was counted […]
# (§15) of the closed arms. […] The following parameters were measured in this test: time spent in open arms of the EPM device and the number of entries to open arms. […]
# [4] = tested on: mice; test: Forced swim test (FST); type: in vivo; details: 1 mg/kg i.p., vs control
# Method: as §10, §11, §12, §13, §14, §15
# [5] = target: mGAT1 (Mus musculus, UniProt P31648); test: [3H]GABA uptake assay, mGAT1; type: cell-based
smiles,measurement,setting,value
O[C@H](CNCC1CC1)[C@H](Cc1ccccc1)NC1c2ccccc2-c2ccccc21 [Compound 6],"viability at 24 h, 0.1 µM","[1]; HT-22, 0.1 µM",99%
same,"viability at 24 h, 1 µM","[1]; HT-22, 1 µM",100%
same,"viability at 24 h, 10 µM","[1]; HT-22, 10 µM",99%
same,"viability at 24 h, 50 µM","[1]; HT-22, 50 µM",9.5%
same,"viability at 24 h, 100 µM","[1]; HT-22, 100 µM, vs DMSO",1.7%
same,IC50,[2]; read-out: NEUROTOXICITY IC50,23.1 µM
same,IC50,[2]; read-out: NEUROTOXICITY pIC (converted),22.9 µM
same,number of punished crossings,[3],increased the number of punished crossings; also recorded: statistically significant increase in the number of punished crossings
same,duration of immobility,[4],reduced immobility; also recorded: mild yet statistically significant antidepressant activity
same,IC50,[5],11 µM
